The values that follow come from US4734418A, “Quinazoline compounds and antihypertensives” (priority 1984, dated 1988).

For the first data set, the system named is Mouse. As to the kind of experiment: Test 2: acute toxicity, mouse, oral. Type of data set: in vivo, male ddy-mice. As to conditions: 1 g/Kg P.O., fourteenth day. On the procedure: The acute toxicity of certain compounds of this invention were studied in the following manner.
Namely, male ddy-mice of 5 weeks of age and male Wister rats of 8 weeks of age were fasted for 18 hours and used in groups each of which was constituted of 4-5 of mice or rats. The compounds were each dissolved or suspended in a 0.5% methylcellulose solution and administered orally (P.O.). On the fourteenth day after the administration, their toxicity were judged.
Each numeral set indicates the number of dead animals/the number of teste
animals. Hyphens (--) indicate that no tests were effected.
Take `CCN1Cc2nc(N3CCN(c4nc(N)c5cc(OC)c(OC)cc5n4)CC3)ncc2C1=O` [Example 23]: the “Acute Toxicity, number of dead animals/number of tested animals” value is listed as 0/5.
Regarding `CCN1CCC(=O)c2cnc(N3CCN(c4nc(N)c5cc(OC)c(OC)cc5n4)CC3)nc21` [Example 21], the “Acute Toxicity, number of dead animals/number of tested animals” value is 0/4.
`COc1cc2nc(N3CCN(c4ncc5c(n4)CN(C(C)C)C5=O)CC3)nc(N)c2cc1OC` [Example 25]: the “Acute Toxicity, number of dead animals/number of tested animals” value is 0/5.
Still for that read-out and setting: next, `CCN1C(=O)Cc2cnc(N3CCN(c4nc(N)c5cc(OC)c(OC)cc5n4)CC3)nc21` [Example 28]: 0/5; `COc1cc2nc(N3CCN(c4ncc5ccccc5n4)CC3)nc(N)c2cc1OC` [Example 70]: 0/4; `CCOC(=O)c1cnc(N2CCN(c3nc(N)c4cc(OC)c(OC)cc4n3)CC2)nc1C` [Example 39]: 0/5.
Still for that read-out and setting: in the case of `COc1cc2nc(N3CCN(C(=O)C4CCCO4)CC3)nc(N)c2cc1OC` (stereo not shown) [Terazosin, terazosin, reference compound] it was 0/5; in that of `CCN1CCc2nc(N3CCN(c4nc(N)c5cc(OC)c(OC)cc5n4)CC3)ncc2C1=O` [Example 17], 0/5.

The same data set, now with this note: 3 g/Kg P.O., fourteenth day.
As to `CCN1Cc2nc(N3CCN(c4nc(N)c5cc(OC)c(OC)cc5n4)CC3)ncc2C1=O` [Example 23], the “Acute Toxicity, number of dead animals/number of tested animals” value is 0/5.
Consider `COc1cc2nc(N3CCN(C(=O)C4CCCO4)CC3)nc(N)c2cc1OC` (stereo not shown) [Terazosin, terazosin, reference compound], for which the “Acute Toxicity, number of dead animals/number of tested animals” value is on record as 1/5.

A further data set deals with Spontaneously Hypertensive Rats. As to the kind of experiment: Test 1: antihypertensive effects (systolic tail artery blood pressure) and heart rate in spontaneously hypertensive rats, oral. Type of data set: in vivo, rat (male, SHR). Conditions: Rattus norvegicus, po, 1 h, read-out: Antihypertensive effects, change (%) in blood pressure, 1 hour later. The essentials: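 Male SHRs aged 20 weeks or older (350-430 g), with systolic pressure of 180 mmHg or higher, were used in groups of 3-4. Compounds in 0.5% methylcellulose were given orally, mostly at 1 mg/Kg. Systolic tail-artery blood pressure and heart rate were measured together as percent change.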
Consider `COc1cc2nc(N3CCN(C(=O)C4CCCO4)CC3)nc(N)c2cc1OC` (stereo not shown) [Terazosin, terazosin, reference compound], for which the change in vivo at 1 mg/kg is -22.4%.

Staying with this data set, now noted: Rattus norvegicus, po, 3 h, read-out: Antihypertensive effects, change (%) in blood pressure, 3 hours later.
With `COc1cc2nc(N3CCN(C(=O)C4CCCO4)CC3)nc(N)c2cc1OC` (stereo not shown) [Terazosin, terazosin, reference compound], the change in vivo at 1 mg/kg was -25.9%.

Still in this data set, the particulars now being: Rattus norvegicus, po, 6 h, read-out: Antihypertensive effects, change (%) in blood pressure, 6 hours later.
On to `COc1cc2nc(N3CCN(C(=O)C4CCCO4)CC3)nc(N)c2cc1OC` (stereo not shown) [Terazosin, terazosin, reference compound], for which the change in vivo at 1 mg/kg was -23.4%.

Staying with this data set, now noted: Rattus norvegicus, po, 24 h, read-out: Antihypertensive effects, change (%) in blood pressure, 24 hours later.
With `COc1cc2nc(N3CCN(C(=O)C4CCCO4)CC3)nc(N)c2cc1OC` (stereo not shown) [Terazosin, terazosin, reference compound], the change in vivo at 1 mg/kg was -5.4%.

Staying with this data set, now noted: Rattus norvegicus; SHR, oral 1 mg/Kg, 1 hour; read-out: Antihypertensive effects, change (%) in blood pressure, 1 hour later.
`CCN1Cc2nc(N3CCN(c4nc(N)c5cc(OC)c(OC)cc5n4)CC3)ncc2C1=O` [Example 23]: the change in vivo at 1 mg/kg was -11.7%.
The same measure, in the same setting: next, `CCN1CCC(=O)c2cnc(N3CCN(c4nc(N)c5cc(OC)c(OC)cc5n4)CC3)nc21` [Example 21]: -17.2%; `COc1cc2nc(N3CCN(c4ncc5c(n4)CN(C(C)C)C5=O)CC3)nc(N)c2cc1OC` [Example 25]: -4.3%; `CCN1C(=O)Cc2cnc(N3CCN(c4nc(N)c5cc(OC)c(OC)cc5n4)CC3)nc21` [Example 28]: -17.2%.
Regarding `COc1cc2nc(N3CCN(c4ncc5ccccc5n4)CC3)nc(N)c2cc1OC` [Example 70], the change in vivo at 1 mg/kg is -7.8%.
As to `CCOC(=O)c1cnc(N2CCN(c3nc(N)c4cc(OC)c(OC)cc4n3)CC2)nc1C` [Example 39], the change in vivo at 1 mg/kg is -4.4%.
`CCN1CCc2nc(N3CCN(c4nc(N)c5cc(OC)c(OC)cc5n4)CC3)ncc2C1=O` [Example 17]: the change in vivo at 1 mg/kg is 0%.
As for `COc1cc2nc(N3CCN(c4ncc5c(=O)n(C(C)C)ccc5n4)CC3)nc(N)c2cc1OC` [Example 6], the change in vivo at 1 mg/kg was -1.5%.

The same data set, now with this note: Rattus norvegicus; SHR, oral 1 mg/Kg, 3 hours; read-out: Antihypertensive effects, change (%) in blood pressure, 3 hours later.
For the molecule `CCN1Cc2nc(N3CCN(c4nc(N)c5cc(OC)c(OC)cc5n4)CC3)ncc2C1=O` [Example 23], the change in vivo at 1 mg/kg is -21.9%.
As to `CCN1CCC(=O)c2cnc(N3CCN(c4nc(N)c5cc(OC)c(OC)cc5n4)CC3)nc21` [Example 21], the change in vivo at 1 mg/kg was -23.2%.
For the molecule `COc1cc2nc(N3CCN(c4ncc5c(n4)CN(C(C)C)C5=O)CC3)nc(N)c2cc1OC` [Example 25], the change in vivo at 1 mg/kg was -23.9%.
Turning to `CCN1C(=O)Cc2cnc(N3CCN(c4nc(N)c5cc(OC)c(OC)cc5n4)CC3)nc21` [Example 28], the change in vivo at 1 mg/kg was -15.3%.
`COc1cc2nc(N3CCN(c4ncc5ccccc5n4)CC3)nc(N)c2cc1OC` [Example 70]: the change in vivo at 1 mg/kg was -17.5%.
`CCOC(=O)c1cnc(N2CCN(c3nc(N)c4cc(OC)c(OC)cc4n3)CC2)nc1C` [Example 39]: the change in vivo at 1 mg/kg is -12.7%.
Turning to `CCN1CCc2nc(N3CCN(c4nc(N)c5cc(OC)c(OC)cc5n4)CC3)ncc2C1=O` [Example 17], the change in vivo at 1 mg/kg is -20.2%.
On to `COc1cc2nc(N3CCN(c4ncc5c(=O)n(C(C)C)ccc5n4)CC3)nc(N)c2cc1OC` [Example 6], for which the change in vivo at 1 mg/kg is -13.8%.

The data set is the same for the next values; noted with them: Rattus norvegicus; SHR, oral 1 mg/Kg, 6 hours; read-out: Antihypertensive effects, change (%) in blood pressure, 6 hours later.
For the molecule `CCN1Cc2nc(N3CCN(c4nc(N)c5cc(OC)c(OC)cc5n4)CC3)ncc2C1=O` [Example 23], the change in vivo at 1 mg/kg was -27%.
With `CCN1CCC(=O)c2cnc(N3CCN(c4nc(N)c5cc(OC)c(OC)cc5n4)CC3)nc21` [Example 21], the change in vivo at 1 mg/kg is -23.6%.
`COc1cc2nc(N3CCN(c4ncc5c(n4)CN(C(C)C)C5=O)CC3)nc(N)c2cc1OC` [Example 25]: the change in vivo at 1 mg/kg is -35.4%.
The same measure, in the same setting: in the case of `CCN1C(=O)Cc2cnc(N3CCN(c4nc(N)c5cc(OC)c(OC)cc5n4)CC3)nc21` [Example 28] it was -31.6%; in that of `COc1cc2nc(N3CCN(c4ncc5ccccc5n4)CC3)nc(N)c2cc1OC` [Example 70], -23.3%; in that of `CCOC(=O)c1cnc(N2CCN(c3nc(N)c4cc(OC)c(OC)cc4n3)CC2)nc1C` [Example 39], -7.3%.
Same read-out and setting: in the case of `CCN1CCc2nc(N3CCN(c4nc(N)c5cc(OC)c(OC)cc5n4)CC3)ncc2C1=O` [Example 17] it was -27.9%.
As to `COc1cc2nc(N3CCN(c4ncc5c(=O)n(C(C)C)ccc5n4)CC3)nc(N)c2cc1OC` [Example 6], the change in vivo at 1 mg/kg was -16.7%.

The same data set, now with this note: Rattus norvegicus; SHR, oral 1 mg/Kg, 24 hours; read-out: Antihypertensive effects, change (%) in blood pressure, 24 hours later.
As to `CCN1Cc2nc(N3CCN(c4nc(N)c5cc(OC)c(OC)cc5n4)CC3)ncc2C1=O` [Example 23], the change in vivo at 1 mg/kg was -2.6%.
For `CCN1CCC(=O)c2cnc(N3CCN(c4nc(N)c5cc(OC)c(OC)cc5n4)CC3)nc21` [Example 21], the change in vivo at 1 mg/kg was -3.4%.
In the case of `COc1cc2nc(N3CCN(c4ncc5c(n4)CN(C(C)C)C5=O)CC3)nc(N)c2cc1OC` [Example 25], the change in vivo at 1 mg/kg is -6.7%.
`CCN1C(=O)Cc2cnc(N3CCN(c4nc(N)c5cc(OC)c(OC)cc5n4)CC3)nc21` [Example 28]: the change in vivo at 1 mg/kg was -3.3%.
On the same count and under the same terms, next, `COc1cc2nc(N3CCN(c4ncc5ccccc5n4)CC3)nc(N)c2cc1OC` [Example 70]: -4.4%; `CCOC(=O)c1cnc(N2CCN(c3nc(N)c4cc(OC)c(OC)cc4n3)CC2)nc1C` [Example 39]: 1.5%; `CCN1CCc2nc(N3CCN(c4nc(N)c5cc(OC)c(OC)cc5n4)CC3)ncc2C1=O` [Example 17]: -12%.
With `COc1cc2nc(N3CCN(c4ncc5c(=O)n(C(C)C)ccc5n4)CC3)nc(N)c2cc1OC` [Example 6], the change in vivo at 1 mg/kg was -9.9%.

The same data set, now with this note: SHR, oral 1 mg/Kg, maximum value.
Take `CCN1Cc2nc(N3CCN(c4nc(N)c5cc(OC)c(OC)cc5n4)CC3)ncc2C1=O` [Example 23]: the “Change (%) in heart rate” value is recorded as “+23.1%”.
With `CCN1CCC(=O)c2cnc(N3CCN(c4nc(N)c5cc(OC)c(OC)cc5n4)CC3)nc21` [Example 21], the “Change (%) in heart rate” value is “+7.4%”.
Regarding `COc1cc2nc(N3CCN(c4ncc5c(n4)CN(C(C)C)C5=O)CC3)nc(N)c2cc1OC` [Example 25], the “Change (%) in heart rate” value is on record as “+12.9%”.
The same measure, in the same setting: next, `CCN1C(=O)Cc2cnc(N3CCN(c4nc(N)c5cc(OC)c(OC)cc5n4)CC3)nc21` [Example 28]: “+11.7%”; `COc1cc2nc(N3CCN(c4ncc5ccccc5n4)CC3)nc(N)c2cc1OC` [Example 70]: “+13.7%”.
In the case of `CCOC(=O)c1cnc(N2CCN(c3nc(N)c4cc(OC)c(OC)cc4n3)CC2)nc1C` [Example 39], the “Change (%) in heart rate” value is reported as “+2.2%”.
Still for that read-out and setting: next, `COc1cc2nc(N3CCN(C(=O)C4CCCO4)CC3)nc(N)c2cc1OC` (stereo not shown) [Terazosin, terazosin, reference compound]: “+7.2%”; `CCN1CCc2nc(N3CCN(c4nc(N)c5cc(OC)c(OC)cc5n4)CC3)ncc2C1=O` [Example 17]: “+10.8%”; `COc1cc2nc(N3CCN(c4ncc5c(=O)n(C(C)C)ccc5n4)CC3)nc(N)c2cc1OC` [Example 6]: “+5.1%”.
